Experimental findings from paper PMC8322070, “A novel orally active HDAC6 inhibitor T-518 shows a therapeutic potential for Alzheimer’s disease and tauopathy in mice” (Scientific Reports, 2021) are described below.

Molecules are shown by their SMILES.

Assay [1] deals with Histone H3 acetylation in mouse primary neural cultures. The assay is described as follows: Histone H3 acetylation in mouse primary neural culture (Western blotting). The assay is classed as cell-based. The conditions noted are these: DIV6 mouse primary neural culture, 3 and 30 μM, 24 h. The procedure: (§1) T-518, ACY-738, Ricolinostat, and Tubastatin A were synthesized in Takeda. For in vitro cellular experiments, the compounds were solubilized with DMSO and diluted in the culture medium at the indicated concentrations. For in vivo experiments, the compound was reconstituted in 0.5% methylcellulose and administered orally at the indicated doses. After administration, mouse hippocampus was isolated and homogenized in RIPA extraction buffer (50 mM Tris–HCl, 150 mM NaCl, 1% NP-40, 0.5% sodium deoxycholate, and 0.1% SDS, pH 8.0) supplemented with protease and phosphatase inhibitor cocktail (Thermo Fischer, Waltham, MA, USA). The homogenate was centrifuged at 10,000g for 15 min and the supernatant was taken as the RIPA-soluble fraction.
(§2) Primary cortical neurons were prepared from E14 C57BL/6J mouse embryos (CLIEA Japan, Inc., Tokyo, Japan) using papain-containing Neuron Dissociation Solutions (Fujifilm Wako, Tokyo, Japan). Isolated cells were suspended in Neurobasal Medium containing B-27 (Thermo Fisher) and seeded on poly-D-lysine-coated plates (Corning, NY, USA) under 5% CO2 at 37 °C for 6 days in vitro (DIV) prior to evaluation of HDAC6 inhibitors. Cells were treated with HDAC6 inhibitors at the indicated concentrations for 24 h and lysed in RIPA extraction buffer (50 mM Tris–HCl, 150 mM NaCl, 1% NP-40, 0.5% sodium deoxycholate, and 0.1% SDS, pH 8.0) supplemented with protease and phosphatase inhibitor cocktail (Thermo Fisher).
Cell lysate or in vivo protein samples were separated by 10% SDS-PAGE, then electrophoretically transferred to 0.45 μm poly-vinylidene difluoride membranes (Millipore). Membranes were blocked for 1 h in Blocking Reagent (TOYOBO, Osaka, Japan), probed with primary antibodies followed by labeling with HRP-coupled secondary antibodies (Amersham, Piscataway, NJ), and then visualized using chemiluminescence reagent (ECL; Amersham). Images were captured using ImageQuant LAS 4000 (GE healthcare Bio-Sciences, Marlborough, MA, USA). Quantitative densitometric analyses were conducted using ImageQuant TL (GE healthcare Bio-Sciences). The protocol was slightly modified for detection of HDAC6 in cortex. Briefly, cerebral cortex was homogenized in RIPA buffer supplemented with 1 μM microstatin, 1 μM MG115, 40 μM Leupeptin, 100 μM ABSF, and 2 mM sodium orthovanadate, separated by 7.5–15% gradient SDS-PAGE and electrophoretically transferred to 0.45 μm poly-vinylidene difluoride membranes (Millipore). Membranes were blocked for 1 h with ECL Prime Blocking Reagent (Amersham, Piscataway, NJ) prior to immunoblotting, visualization, and densitometry as described above.
In general terms: A western blot detects proteins with antibodies after separation by electrophoresis.

The test system of assay [2] is tubulin acetylation in mouse primary neural cultures. The assay is described as follows: Tubulin acetylation in mouse primary neural culture (ELISA). To be noted: DIV6 mouse primary neural culture, 0.1–10 μM, 24 h, ELISA. The assay is classed as cell-based. The procedure: as §1, §2
Acetylated α-tubulin and total tubulin levels were measured by sandwich ELISA. Ninety six-well plates (Microlite2+, Thermo) were coated with α-tubulin capture antibody (1:100) by overnight incubation at 4 °C, washed 4 times with PBS'T, treated with blocking buffer (1% bovine serum albumin in PBS'T) at 37 °C for 2 h, and washed another 4 times with PBS’T. Cell or tissues lysate was added to the wells and plates were incubated at 37 °C for 2 h. Plates were then washed 4 times with PBST, incubated with a detection antibody for acetylated tubulin or total α-tubulin diluted in blocking buffer at 37℃ for 1 h, rewashed 4 more times with PBST, incubated with a mouse secondary antibody conjugated to horseradish peroxidase (HRP) for 30 min, wash 4 times again with PBST, and then incubated with chemiluminescent substrate (SuperSignal).
On the technique in general: ELISA stands for enzyme-linked immunosorbent assay.

The next assay relates to class I HDACs. As to the kind of experiment: HDAC selectivity panel (Reaction Biology Corporation), class I. The conditions noted are these: heat map Fig. 2A. The assay is classed as biochemical. The procedure:
Recombinant HDAC6, HDAC7, HDAC1 were obtained from SignalChem Pharmaceutical Inc. (Richmond, BC, Canada), and recombinant human HDAC4 was prepared at Takeda pharmaceutical company. One μL of T-518 diluted with DMSO was added to 75 μL of assay buffer (24 mM Tris–HCl (pH 7.5), 135 mM NaCl, 0.35 mM KCl, 1 mM MgCl2, 0.01% Tween 20, 0.6 mM GSH) in 384 well plates. Two μL of diluted compounds were added to 384 well plates and 2 μL of recombinant HDAC enzymes was added and then centrifuged at 1000 rpm for 10 s. The final concentrations of each HDAC enzyme were as follows, human HDAC1, 170 pM; human HDAC6, […]; human HDAC4, 68 pM; human HDAC7, 13 pM. After incubation for 60 min at room temperature, 4 μL of HDAC-Glo reagent [HDAC-Glo I/II (Promega) for HDAC6 and HDAC1, HDAC-Glo class IIa (Promega) for HDAC4 and HDAC7] was added to start the reaction. After incubation for 20 min at room temperature, the luminescence was measured by Envision plate reader (PerkinElmer, Waltham, MA, USA). For experiments under the condition of 0 min preincubation, 4 μL of HDAC-Glo reagent was added at first to the 384 well plates including diluted compounds. […] After centrifugation at 1000 rpm for 10 s. and then incubation for 20 min at room temperature, the luminescence was measured by Envision. […] The inhibitory activity of T-518 was expressed as the value of IC50. […]

A further assay concerns class IIa HDACs. As to the kind of experiment: HDAC selectivity panel (Reaction Biology Corporation), class IIa. The conditions noted are these: heat map Fig. 2A. The assay is classed as biochemical. The procedure: Recombinant HDAC6, HDAC7, HDAC1 were obtained from SignalChem Pharmaceutical Inc. (Richmond, BC, Canada), and recombinant human HDAC4 was prepared at Takeda pharmaceutical company. One μL of T-518 diluted with DMSO was added to 75 μL of assay buffer (24 mM Tris–HCl (pH 7.5), 135 mM NaCl, 0.35 mM KCl, 1 mM MgCl2, 0.01% Tween 20, 0.6 mM GSH) in 384 well plates. Two μL of diluted compounds were added to 384 well plates and 2 μL of recombinant HDAC enzymes was added and then centrifuged at 1000 rpm for 10 s. The final concentrations of each HDAC enzyme were as follows, human HDAC1, 170 pM; human HDAC6, […]; human HDAC4, 68 pM; human HDAC7, 13 pM. After incubation for 60 min at room temperature, 4 μL of HDAC-Glo reagent [HDAC-Glo I/II (Promega) for HDAC6 and HDAC1, HDAC-Glo class IIa (Promega) for HDAC4 and HDAC7] was added to start the reaction. After incubation for 20 min at room temperature, the luminescence was measured by Envision plate reader (PerkinElmer, Waltham, MA, USA). For experiments under the condition of 0 min preincubation, 4 μL of HDAC-Glo reagent was added at first to the 384 well plates including diluted compounds. After centrifugation at 1000 rpm for 10 s, 2 μL of HDAC enzyme solution was added. After centrifugation at 1000 rpm for 10 s. and then incubation for 20 min at room temperature, the luminescence was measured by Envision. For determination of inhibitory activity of T-518, the vehicle signal was set as 0% and the signal in the absence of HDAC enzyme was set as 100% inhibition. The inhibitory activity of T-518 was expressed as the value of IC50. The IC50 value and 95% confidence intervals were calculated by XLfit (IDBS, Surrey, UK). The HDAC selectivity panel was conducted by Reaction Biology Corporation (Malvern, PA, USA).

Take `O=C(NO)c1cnc(NC2(c3ccccc3)CC2)nc1` [ACY-738]: the “effect on Histone H3 acetylation” value in assay [1] is listed as “increase the acetylation of histone H3”. For the same compound, the “effect on tubulin acetylation” value in assay [2] is “significantly and concentration-dependently elevates tubulin acetylation”. Also, the “inhibition of class I HDACs in HDAC panel” value with class I HDACs is on record as “slightly inhibit”. Also, the “inhibition of class IIa HDACs in HDAC panel” value (“inhibition of class IIa HDACs” for short) with class IIa HDACs is listed as “slightly inhibit”.

Turning to `O=C(CCCCCCNC(=O)c1cnc(N(c2ccccc2)c2ccccc2)nc1)NO` [Ricolinostat], in assay [1], the “effect on Histone H3 acetylation” value is listed as “increase the acetylation of histone H3”. Further, the “effect on tubulin acetylation” value in assay [2] is “significantly and concentration-dependently elevates tubulin acetylation”. Besides, in the assay with class I HDACs, the “inhibition of class I HDACs in HDAC panel” value is recorded as “slightly inhibit”. The “inhibition of class IIa HDACs” value in the assay with class IIa HDACs is reported as “slightly inhibit”.

On to `CN1CCc2c(c3ccccc3n2Cc2ccc(C(=O)NO)cc2)C1` [Tubastatin A], for which the “effect on Histone H3 acetylation” value in assay [1] was “neither T-518 nor Tubastatin A at 3 and 30 μM demonstrates this activity”. For the same compound, the “effect on tubulin acetylation” value in assay [2] is “significantly and concentration-dependently elevates tubulin acetylation”. Moreover, the “inhibition of class IIa HDACs” value in the assay with class IIa HDACs was “inhibits”.
